Measurements taken from paper PMC5218480 (PLoS ONE, 2017).

System: MV-4-11 cells
Assay: Gene expression microarray analysis (Affymetrix PrimeView) and GSEA
Type: cell-based, human
Design: RFU PODN (11730768_x_at) / Fold change /veh PODN (11730768_x_at) / RFU LINC00158 (11744669_a_at) / Fold change /veh LINC00158 (11744669_a_at) / RFU DUSP10 (11751237_a_at) / Fold change /veh DUSP10 (11751237_a_at) / RFU ID3 (11757404_x_at) / Fold change /veh ID3 (11757404_x_at) / RFU PLEKHG5 (11737974_s_at) / Fold change /veh PLEKHG5 (11737974_s_at) / RFU LRRC4B (11730491_at) / Fold change /veh LRRC4B (11730491_at) / RFU GIMAP4 (11747438_a_at) / Fold change /veh GIMAP4 (11747438_a_at) / RFU KRT8 (11758183_x_at) / Fold change /veh KRT8 (11758183_x_at) / RFU CNN1 (11734310_a_at) / Fold change /veh CNN1 (11734310_a_at) / RFU VPS37D (11726825_at) / Fold change /veh VPS37D (11726825_at) / RFU C10orf10 (11716522_x_at) / Fold change /veh C10orf10 (11716522_x_at) / RFU KIR2DL2 /// KIR2DL4 /// KIR2DL5A /// KIR2DL5B /// KIR2DS1 /// KIR2DS2 /// KIR2DS3 /// KIR2DS4 /// KIR3DL3 /// KIR3DL3 /// KIR3DS1 (11738374_at) / Fold change /veh KIR2DL2 /// KIR2DL4 /// KIR2DL5A /// KIR2DL5B /// KIR2DS1 /// KIR2DS2 /// KIR2DS3 /// KIR2DS4 /// KIR3DL3 /// KIR3DL3 /// KIR3DS1 (11738374_at) / RFU C1QL1 (11718748_at) / Fold change /veh C1QL1 (11718748_at) / RFU TMPRSS4 (11747572_a_at) / Fold change /veh TMPRSS4 (11747572_a_at) / RFU HAMP (11756126_x_at) / Fold change /veh HAMP (11756126_x_at) / RFU RNFT2 (11725882_a_at) / Fold change /veh RNFT2 (11725882_a_at) / RFU NR4A2 (11747474_a_at) / Fold change /veh NR4A2 (11747474_a_at) / RFU ABCC12 (11746883_a_at) / Fold change /veh ABCC12 (11746883_a_at) / RFU TMEM136 (11760407_x_at) / Fold change /veh TMEM136 (11760407_x_at) / RFU CLDN22 /// WWC2 (11732394_at) / Fold change /veh CLDN22 /// WWC2 (11732394_at) / RFU HLA-DPB1 (11760878_x_at) / Fold change /veh HLA-DPB1 (11760878_x_at) / RFU SPINT1 (11716480_a_at) / Fold change /veh SPINT1 (11716480_a_at) / RFU GAP43 (11754022_s_at) / Fold change /veh GAP43 (11754022_s_at) / RFU A4GNT (11735810_at) / Fold change /veh A4GNT (11735810_at) / RFU PRB3 (11715151_x_at) / Fold change /veh PRB3 (11715151_x_at) / RFU TUBB4B (11761932_at) / Fold change /veh TUBB4B (11761932_at) / RFU CAPN14 (11732068_a_at) / Fold change /veh CAPN14 (11732068_a_at) / RFU TMCC2 (11721928_a_at) / Fold change /veh TMCC2 (11721928_a_at) / RFU IRGQ (11745062_a_at) / Fold change /veh IRGQ (11745062_a_at) / RFU FAM174B (11720279_a_at) / Fold change /veh FAM174B (11720279_a_at) / RFU TMPRSS4 (11748680_a_at) / Fold change /veh TMPRSS4 (11748680_a_at) / RFU FAM212B (11763350_a_at) / Fold change /veh FAM212B (11763350_a_at) / RFU PLEKHG5 (11743358_a_at) / Fold change /veh PLEKHG5 (11743358_a_at) / RFU ZSCAN30 (11745921_a_at) / Fold change /veh ZSCAN30 (11745921_a_at) / RFU CMKLR1 (11741424_a_at) / Fold change /veh CMKLR1 (11741424_a_at) / RFU LOC101060620 /// MAPK8IP1 (11723275_at) / Fold change /veh LOC101060620 /// MAPK8IP1 (11723275_at) / RFU SPTSSB (11747773_x_at) / Fold change /veh SPTSSB (11747773_x_at) / RFU PRSS12 (11739890_at) / Fold change /veh PRSS12 (11739890_at) / RFU BIN1 (11741810_x_at) / Fold change /veh BIN1 (11741810_x_at) / RFU WNT11 (11732464_a_at) / Fold change /veh WNT11 (11732464_a_at) / RFU C10orf10 (11716521_a_at) / Fold change /veh C10orf10 (11716521_a_at) / RFU C5orf56 (11738089_at) / Fold change /veh C5orf56 (11738089_at) / RFU CYB561 (11721691_x_at) / Fold change /veh CYB561 (11721691_x_at) / RFU ANKRD19P (11752326_a_at) / Fold change /veh ANKRD19P (11752326_a_at) / RFU OR2T12 /// OR2T33 /// OR2T8 (11738714_s_at) / Fold change /veh OR2T12 /// OR2T33 /// OR2T8 (11738714_s_at) / RFU VCAN (11748164_a_at) / Fold change /veh VCAN (11748164_a_at) / RFU JSRP1 (11732532_at) / Fold change /veh JSRP1 (11732532_at) / RFU KRTAP10-11 (11738290_x_at) / Fold change /veh KRTAP10-11 (11738290_x_at) / RFU MYO3A (11730013_a_at) / Fold change /veh MYO3A (11730013_a_at) / RFU EBF3 (11725865_a_at) / Fold change /veh EBF3 (11725865_a_at) / RFU CAMK2N1 (11719241_x_at) / Fold change /veh CAMK2N1 (11719241_x_at) / RFU C5orf56 (11738088_a_at) / Fold change /veh C5orf56 (11738088_a_at) / RFU OLFML3 (11715873_a_at) / Fold change /veh OLFML3 (11715873_a_at) / RFU LOC100653217 /// NTM (11731650_a_at) / Fold change /veh LOC100653217 /// NTM (11731650_a_at) / RFU MAPK11 (11762145_a_at) / Fold change /veh MAPK11 (11762145_a_at) / RFU FIZ1 (11724087_x_at) / Fold change /veh FIZ1 (11724087_x_at) / RFU OASL (11726364_x_at) / Fold change /veh OASL (11726364_x_at) / RFU SOX15 (11748057_x_at) / Fold change /veh SOX15 (11748057_x_at) / RFU CD79A (11719716_a_at) / Fold change /veh CD79A (11719716_a_at) / RFU HIST1H1D (11736915_at) / Fold change /veh HIST1H1D (11736915_at) / RFU CASKIN2 (11723855_a_at) / Fold change /veh CASKIN2 (11723855_a_at) / RFU LOC730098 (11760151_x_at) / Fold change /veh LOC730098 (11760151_x_at) / RFU OR4N2 (11742367_at) / Fold change /veh OR4N2 (11742367_at) / RFU PRRT2 (11749266_a_at) / Fold change /veh PRRT2 (11749266_a_at) / RFU SNX32 (11753110_a_at) / Fold change /veh SNX32 (11753110_a_at) / RFU CDHR5 (11726645_a_at) / Fold change /veh CDHR5 (11726645_a_at) / RFU RCAN1 (11760418_a_at) / Fold change /veh RCAN1 (11760418_a_at) / RFU FAM167A (11723789_a_at) / Fold change /veh FAM167A (11723789_a_at) / RFU FAM26E (11764081_at) / Fold change /veh FAM26E (11764081_at) / RFU ISYNA1 (11749810_s_at) / Fold change /veh ISYNA1 (11749810_s_at) / RFU ACY1 (11761880_at) / Fold change /veh ACY1 (11761880_at) / RFU 11764098_at / Fold change /veh 11764098_at / RFU SAMD14 (11745864_x_at) / Fold change /veh SAMD14 (11745864_x_at) / RFU NPB (11741838_a_at) / Fold change /veh NPB (11741838_a_at) / RFU TMPRSS6 (11731388_a_at) / Fold change /veh TMPRSS6 (11731388_a_at) / RFU KRTAP10-2 (11738614_at) / Fold change /veh KRTAP10-2 (11738614_at) / RFU ARHGAP8 /// PRR5-ARHGAP8 (11727945_x_at) / Fold change /veh ARHGAP8 /// PRR5-ARHGAP8 (11727945_x_at) / RFU KRTAP5-7 /// NADSYN1 (11734609_at) / Fold change /veh KRTAP5-7 /// NADSYN1 (11734609_at) / RFU RASL12 (11751679_a_at) / Fold change /veh RASL12 (11751679_a_at) / RFU CDKN2B (11736163_a_at) / Fold change /veh CDKN2B (11736163_a_at) / RFU PRF1 (11729649_at) / Fold change /veh PRF1 (11729649_at) / RFU, ZNF638 /// ZNF638-IT1 / Fold change vs veh, ZNF638 /// ZNF638-IT1 / RFU, PANK3 / Fold change vs veh, PANK3 / RFU, SH3YL1 / Fold change vs veh, SH3YL1 / RFU, ZEB2 / Fold change vs veh, ZEB2 / RFU, NRIP1 / Fold change vs veh, NRIP1 / RFU, PTTG1IP / Fold change vs veh, PTTG1IP / RFU, CAPN2 / Fold change vs veh, CAPN2 / RFU, MED14 / Fold change vs veh, MED14 / RFU, SNORA58 / Fold change vs veh, SNORA58 / RFU, C1orf63 / Fold change vs veh, C1orf63 / RFU, LRRFIP1 / Fold change vs veh, LRRFIP1 / RFU, NDUFAF7 / Fold change vs veh, NDUFAF7 / RFU, SLC12A2 / Fold change vs veh, SLC12A2 / RFU, IBTK / Fold change vs veh, IBTK / RFU, ESF1 / Fold change vs veh, ESF1 / Fold change vs veh, TMEM50B / RFU, TAOK1 / Fold change vs veh, TAOK1 / RFU, ACBD3 / Fold change vs veh, ACBD3 / RFU, TMA16 / Fold change vs veh, TMA16 / RFU, RWDD3 / Fold change vs veh, RWDD3 / RFU, BCAT1 / Fold change vs veh, BCAT1 / RFU, EDEM3 / Fold change vs veh, EDEM3 / RFU, TMEM33 / Fold change vs veh, TMEM33 / RFU, WDR75 / Fold change vs veh, WDR75 / RFU, AHCTF1 / Fold change vs veh, AHCTF1 / RFU, TFRC / Fold change vs veh, TFRC / RFU, ZDHHC17 / Fold change vs veh, ZDHHC17 / RFU, NOM1 / Fold change vs veh, NOM1 / RFU, ARL8B / Fold change vs veh, ARL8B / RFU, ZBTB11 / Fold change vs veh, ZBTB11 / RFU, TAMM41 / Fold change vs veh, TAMM41 / RFU, KIAA1704 /// LOC100996395 / Fold change vs veh, KIAA1704 /// LOC100996395 / RFU, ING1 / Fold change vs veh, ING1 / RFU, TRMT61B / Fold change vs veh, TRMT61B / RFU, FUBP3 / Fold change vs veh, FUBP3 / RFU, TP53 / Fold change vs veh, TP53 / RFU, TNKS2 / Fold change vs veh, TNKS2 / RFU, ZFP14 / Fold change vs veh, ZFP14 / RFU, ACTR2 / Fold change vs veh, ACTR2 / RFU, PPP3R1 / Fold change vs veh, PPP3R1 / RFU, PIK3R1 / Fold change vs veh, PIK3R1 / RFU, HNRNPA1 / Fold change vs veh, HNRNPA1 / RFU, RNF170 / Fold change vs veh, RNF170 / RFU, ZNF28 / Fold change vs veh, ZNF28 / RFU, RNGTT / Fold change vs veh, RNGTT / RFU, OGT / Fold change vs veh, OGT / RFU, BRD1 / Fold change vs veh, BRD1 / RFU, MARS / Fold change vs veh, MARS / RFU, ZNF655 / Fold change vs veh, ZNF655 / RFU, FAHD1 / Fold change vs veh, FAHD1 / RFU, BDP1 / Fold change vs veh, BDP1 / RFU, LRRCC1 / Fold change vs veh, LRRCC1 / RFU, ARID1A / Fold change vs veh, ARID1A / RFU, ZNF146 / Fold change vs veh, ZNF146 / RFU, ZNF330 / Fold change vs veh, ZNF330 / RFU, GPN3 / Fold change vs veh, GPN3 / RFU, C9orf123 / Fold change vs veh, C9orf123 / RFU, N4BP2L2 / Fold change vs veh, N4BP2L2 / RFU, ARFIP1 / Fold change vs veh, ARFIP1 / RFU, FAM179B / Fold change vs veh, FAM179B / RFU, BCL10 / Fold change vs veh, BCL10 / RFU, UHRF1BP1L / Fold change vs veh, UHRF1BP1L / RFU, BET1 / Fold change vs veh, BET1 / RFU, CNOT2 / Fold change vs veh, CNOT2 / RFU, ZNF268 / Fold change vs veh, ZNF268 / Fold change vs veh, ZNF507 / RFU, DGCR2 / Fold change vs veh, DGCR2 / RFU, WDSUB1 / Fold change vs veh, WDSUB1 / Fold change vs veh, HSP90B1 /// MIR3652 / RFU, ADSS / Fold change vs veh, ADSS / RFU, GK / Fold change vs veh, GK / RFU, ZNF148 / Fold change vs veh, ZNF148 / RFU, TAF9 / Fold change vs veh, TAF9 / RFU, SLC1A5 / Fold change vs veh, SLC1A5 / RFU, SLMO2 / Fold change vs veh, SLMO2 / RFU, ABCC4 / Fold change vs veh, ABCC4 / RFU, LOC101060439 /// RAP1B / Fold change vs veh, LOC101060439 /// RAP1B / RFU, RFX7 / Fold change vs veh, RFX7 / RFU, GTPBP10 / Fold change vs veh, GTPBP10 / RFU, CNEP1R1 / Fold change vs veh, CNEP1R1 / RFU, BIVM-ERCC5 /// ERCC5 / Fold change vs veh, BIVM-ERCC5 /// ERCC5 / RFU, ILF3 / Fold change vs veh, ILF3 / RFU 11762660_at / Fold change /veh 11762660_at / RFU VCAN (11757783_s_at) / Fold change /veh VCAN (11757783_s_at) / RFU DDX43 (11728927_at) / Fold change /veh DDX43 (11728927_at) / RFU KRT8 (11758188_x_at) / Fold change /veh KRT8 (11758188_x_at) / RFU NKD1 (11759106_at) / Fold change /veh NKD1 (11759106_at) / RFU SRD5A1 (11742802_a_at) / Fold change /veh SRD5A1 (11742802_a_at) / RFU TPSAB1 /// TPSB2 (11721975_s_at) / Fold change /veh TPSAB1 /// TPSB2 (11721975_s_at) / RFU GSTM3 (11746129_a_at) / Fold change /veh GSTM3 (11746129_a_at) / RFU IL23R (11737362_x_at) / Fold change /veh IL23R (11737362_x_at) / RFU TMEM51 (11727254_a_at) / Fold change /veh TMEM51 (11727254_a_at) / RFU PIWIL2 (11732686_x_at) / Fold change /veh PIWIL2 (11732686_x_at) / RFU ORM1 (11744905_x_at) / Fold change /veh ORM1 (11744905_x_at) / RFU CCDC152 (11743942_at) / Fold change /veh CCDC152 (11743942_at) / RFU ECM1 (11717891_a_at) / Fold change /veh ECM1 (11717891_a_at) / RFU IL23R (11748794_a_at) / Fold change /veh IL23R (11748794_a_at) / RFU TNFAIP8L3 (11732012_x_at) / Fold change /veh TNFAIP8L3 (11732012_x_at) / RFU MBOAT4 (11741988_at) / Fold change /veh MBOAT4 (11741988_at) / RFU 11764193_at / Fold change /veh 11764193_at / RFU TMEM53 (11763286_at) / Fold change /veh TMEM53 (11763286_at) / RFU MAGEB2 (11727129_at) / Fold change /veh MAGEB2 (11727129_at) / RFU TMEM200A (11744735_a_at) / Fold change /veh TMEM200A (11744735_a_at) / RFU CCDC152 (11751479_a_at) / Fold change /veh CCDC152 (11751479_a_at) / RFU FAM211A (11726209_a_at) / Fold change /veh FAM211A (11726209_a_at) / RFU RGS16 (11746705_a_at) / Fold change /veh RGS16 (11746705_a_at) / RFU VCAN (11755009_s_at) / Fold change /veh VCAN (11755009_s_at) / RFU RHOB (11743442_s_at) / Fold change /veh RHOB (11743442_s_at) / RFU RGS16 (11720943_a_at) / Fold change /veh RGS16 (11720943_a_at) / RFU RGS16 (11720944_at) / Fold change /veh RGS16 (11720944_at) / RFU, VPS4B / Fold change vs veh, VPS4B / RFU, CREB1 / Fold change vs veh, CREB1 / RFU, DNAJC13 / Fold change vs veh, DNAJC13 / RFU, GNAQ / Fold change vs veh, GNAQ / RFU, CDK5R1 / Fold change vs veh, CDK5R1 / RFU, ZRANB3 / Fold change vs veh, ZRANB3 / RFU, CUL4A / Fold change vs veh, CUL4A / RFU, CCNY / Fold change vs veh, CCNY / RFU, UFL1 / Fold change vs veh, UFL1 / RFU, COG3 / Fold change vs veh, COG3 / RFU, DIAPH2 / Fold change vs veh, DIAPH2 / RFU, SKA2 / Fold change vs veh, SKA2 / RFU, AFF3 / Fold change vs veh, AFF3 / RFU, LMF1 / Fold change vs veh, LMF1 / RFU, IPO11 / Fold change vs veh, IPO11 / RFU, DFFB / Fold change vs veh, DFFB / RFU, FOXP1 / Fold change vs veh, FOXP1 / RFU, CARD8 / Fold change vs veh, CARD8 / RFU, STRN3 / Fold change vs veh, STRN3 / RFU, ADK / Fold change vs veh, ADK / RFU, RASSF2 / Fold change vs veh, RASSF2 / RFU, WIPF1 / Fold change vs veh, WIPF1 / RFU, LARP1B / Fold change vs veh, LARP1B / RFU, RASA1 / Fold change vs veh, RASA1 / RFU, RB1 / Fold change vs veh, RB1 / RFU, PPFIA1 / Fold change vs veh, PPFIA1 / RFU, MAT2A / Fold change vs veh, MAT2A / RFU, CCT5 / Fold change vs veh, CCT5 / RFU, WDR92 / Fold change vs veh, WDR92 / RFU, CUX1 / Fold change vs veh, CUX1 / RFU, TTC7A / Fold change vs veh, TTC7A / RFU, TMEM135 / Fold change vs veh, TMEM135 / RFU, DEPTOR / Fold change vs veh, DEPTOR / RFU, CPM / Fold change vs veh, CPM / RFU, DNAJB6 / Fold change vs veh, DNAJB6 / RFU, CACNA2D3 / Fold change vs veh, CACNA2D3 / RFU, DTX4 / Fold change vs veh, DTX4 / RFU, TFCP2 / Fold change vs veh, TFCP2 / RFU, GMCL1 /// GMCL1P1 / Fold change vs veh, GMCL1 /// GMCL1P1 / RFU, AEBP2 / Fold change vs veh, AEBP2 / RFU, SNHG1 /// SNORD22 /// SNORD25 /// SNORD26 /// SNORD27 /// SNORD28 /// SNORD29 /// SNORD31 / Fold change vs veh, SNHG1 /// SNORD22 /// SNORD25 /// SNORD26 /// SNORD27 /// SNORD28 /// SNORD29 /// SNORD31 / Fold change (Aza/veh), C12orf56 (ProbeSet 11735607_a_at) / Fold change (ACY-1035/veh), C12orf56 (ProbeSet 11735607_a_at) / Fold change (Aza/veh), FGFR1OP (ProbeSet 11751329_s_at) / Fold change (ACY-1035/veh), FGFR1OP (ProbeSet 11751329_s_at) / Fold change (Aza/veh), VPS36 (ProbeSet 11739960_a_at) / Fold change (ACY-1035/veh), VPS36 (ProbeSet 11739960_a_at) / RFU SYPL1 (11715823_x_at) / Fold change /veh SYPL1 (11715823_x_at) / RFU IGFBP7 (11715501_s_at) / Fold change /veh IGFBP7 (11715501_s_at) / RFU REEP3 (11722064_at) / Fold change /veh REEP3 (11722064_at) / RFU IGLL1 (11728026_x_at) / Fold change /veh IGLL1 (11728026_x_at): dose or concentration left out as unconfirmed
Details: MV-4-11 cells, 48 hours

`Nc1ncn([C@@H]2O[C@H](CO)[C@@H](O)[C@H]2O)c(=O)n1` [azacitidine] was tested, and the “RFU PRF1 (11729649_at)” value was 19.15 RFU.
